# Measurements published in patent US20200172483A1, “HETEROCYCLIC SMALL MOLECULE MODULATORS OF HUMAN STING” (Curadev Pharma Limited, priority 2017, published 2020).
# Where two headings read alike, the source gives them in different places.
# Key:
# [1] = target: T1, WT/R232 STING protein (Homo sapiens, UniProt Q86WV6, H232R); assay: Luciferase reporter assay in HEK293T-hSTING-Luciferase cells (R232); type: cell-based; details: 20 hr stimulation, EC50 range
# T1 construct: host or cells: HEK293T
# T1 sequence (Q86WV6 whole entry H232R): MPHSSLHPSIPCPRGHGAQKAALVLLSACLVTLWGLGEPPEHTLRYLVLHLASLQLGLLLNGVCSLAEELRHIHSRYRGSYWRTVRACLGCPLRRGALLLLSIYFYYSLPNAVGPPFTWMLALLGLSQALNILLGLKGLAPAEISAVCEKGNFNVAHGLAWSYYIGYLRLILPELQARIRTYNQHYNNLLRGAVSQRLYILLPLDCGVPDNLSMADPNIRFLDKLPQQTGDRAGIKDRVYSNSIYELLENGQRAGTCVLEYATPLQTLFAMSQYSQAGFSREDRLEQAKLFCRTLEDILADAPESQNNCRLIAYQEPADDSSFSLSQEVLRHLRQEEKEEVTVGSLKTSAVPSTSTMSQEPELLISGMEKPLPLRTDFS
# In short: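 Clonal HEK293T cells stably expressing human STING R232 plus an ISRE/ISG54-driven secreted luciferase reporter, stimulated with compounds for 20 hr. Luciferase in supernatant read by luminescence; activity given as fold-induction over baseline.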
# [2] = target: T2, hSTING (H232) (Homo sapiens, UniProt Q86WV6); assay: Luciferase reporter assay in HEK293T-hSTING-Luciferase cells (H232/REF polymorph); type: cell-based; details: EC50 range
# T2 construct: host or cells: HEK293T
# T2 sequence (Q86WV6 whole entry): as the sequence (Q86WV6 whole entry H232R) above, with R232H counted along it
# Text: (§1) • a) Stable STING expressing cells—Stable HEK293T STING-expressing cell lines were generated using plasmids purchased from Invivogen, CA, USA, that contain STING cDNA cloned into the pUNO-1 vector under hEF1-HTLV promoter and containing the Blasticidin selection cassette. The plasmids hSTING (R232), hSTING (H232), hSTING (HAQ) were directly procured from Invivogen while hSTING (AQ) and hSTING (Q) were derived from hSTING (HAQ) and hSTING (R232) plasmids respectively by using a PCR based site directed mutagenesis method. These vectors were individually transfected into HEK293T cells using Lipofectamine (Invitrogen) and transfected cells were selected under Blasticidin selection. These transfected cells were further subjected to clonal selection using the limiting dilution method to obtain clonally pure populations of HEK cells transfected with each of the above mentioned human STING variants. Only those clones were selected in which ligand independent activation of STING was minimal. • b) Stable Luciferase reporter gene expressing cells—Stable HEK293T Luciferase reporter gene expressing cell lines were generated using pCDNA4 plasmids under an IRF-inducible promoter. This promoter is comprised of five tandem interferon-stimulated response elements (ISRE) fused to an ISG54 minimal promoter. This vector was transfected into HEK293T cells using Lipofectamine (Invitrogen) and transfected cells were selected under Zeocin selection. These transfected cells were further subjected to clonal selection using the limiting dilution method to obtain clonally pure populations of HEK cells transfected the Luciferase reporter construct. Only those clones were selected in which ligand independent induction of luciferase was minimal.
# (§2) 5×10^5 clonally selected HEK293T-hSTING-Luciferase cells were seeded in 384-well plates in growth medium and stimulated with novel compounds. After 20 hr of stimulation supernatant were removed and secretary reporter gene activity were measured using the Quanti-Luc detection system (Invivogen) on a Spectramax i3X luminometer.
# (§3) The 5 major polymorphisms of human STING are shown in FIG. 1, with their prevalence in human populations indicated.
# [3] = target: T3, hSTING (HAQ) (Homo sapiens, UniProt Q86WV6, G230A/H232R/R293Q/R71H); assay: Luciferase reporter assay in HEK293T-hSTING-Luciferase cells (HAQ polymorph); type: cell-based; details: EC50 range
# T3 construct: host or cells: HEK293T
# T3 sequence (Q86WV6 whole entry R71H/G230A/H232R/R293Q): as the sequence (Q86WV6 whole entry H232R) above, with R71H, G230A, R293Q counted along it
# Text: as §1, §2, §3
# [4] = system: IRF pathway; assay: Reporter gene expression assay for IRF axis in THP1-Dual cells (secreted Lucia luciferase); type: cell-based, human; details: 20 hr stimulation, QUANTI-Luc, EC50 range, read-out: THP-IRF activity
# Description: (§4) THP1-Dual™ cells (Invivogen) were derived from the human THP-1 monocyte cell line by stable integration of two inducible reporter constructs. As a result, THP1-Dual™ cells allow the simultaneous study of the NF-κB pathway, by monitoring the activity of secreted SEAP, and the IRF pathway, by assessing the activity of a secreted luciferase (Lucia). […] THP1-Dual™ cells were seeded in 384-well plates in growth medium and stimulated with novel compounds. After 20 hr of stimulation supernatant were removed and reporter proteins were readily measured in the cell culture supernatant using QUANTI-Blue™ (Invivogen), a SEAP detection reagent, and QUANTI-Luc™ (Invivogen), a luciferase detection reagent on a Spectramax i3X luminometer. EC50 value ranges for exemplary compounds tested in the above assay are given.
# [5] = system: NF-κB pathway; assay: Reporter gene expression assay for NFκB axis in THP1-Dual cells (secreted SEAP); type: cell-based, human; details: 20 hr stimulation, QUANTI-Blue SEAP, EC50 range, read-out: THP-NFKB activity
# Description: as §4
Compound,EC50 [1],EC50 [2],EC50 [3],"EC50 ([4]; Homo sapiens, THP1-Dual, 20 h)","EC50 ([5]; Homo sapiens, THP1-Dual, 20 h)",EC50 [5],EC50 [4]
"CC1(C)C(=O)N(Cc2cccc(F)c2)c2cc(C(=O)NCc3c(F)cc(F)cc3F)ccc21 [Example 14, 1-(3-fluorobenzyl)-3,3-dimethyl-2-oxo-N-(2,4,6-trifluorobenzyl)indoline-6-carboxamide]",≤ 1 µM,1 to 10 µM,1 to 10 µM,1 to 10 µM,1 to 10 µM,–,–
"CC1(C)C(=O)N(Cc2cc(F)cc(F)c2)c2cc(C(=O)NCc3ccc(N=[N+]=[N-])cc3)ccc21 [Example 48, N-(4-azidobenzyl)-1-(3,5-difluorobenzyl)-3,3-dimethyl-2-oxoindoline-6-carboxamide]",1 to 10 µM,1 to 10 µM,1 to 10 µM,> 10 µM,> 10 µM,–,–
"Cc1cccc(CNC(=O)c2ccc3c(c2)N(Cc2cc(F)cc(F)c2)C(=O)C3(C)C)c1 [Example 4, 1-(3,5-difluorobenzyl)-3,3-dimethyl-N-(3-methylbenzyl)-2-oxoindoline-6-carboxamide]",1 to 10 µM,1 to 10 µM,1 to 10 µM,> 10 µM,> 10 µM,–,–
"CC1(C)C(=O)N(Cc2ccccc2)c2cc(C(=O)NCc3c(F)cc(F)cc3F)ccc21 [Example 11, 1-benzyl-3,3-dimethyl-2-oxo-N-(2,4,6-trifluorobenzyl)indoline-6-carboxamide]",≤ 1 µM,1 to 10 µM,1 to 10 µM,> 10 µM,1 to 10 µM,–,–
"CC1(C)C(=O)N(Cc2cccc(N=[N+]=[N-])c2)c2cc(C(=O)NCc3c(F)cc(F)cc3F)ccc21 [Example 57, 1-(3-azidobenzyl)-3,3-dimethyl-2-oxo-N-(2,4,6-triflurobenzyl)indoline-6-carboxamide]",1 to 10 µM,1 to 10 µM,1 to 10 µM,> 10 µM,> 10 µM,–,–
"CC1(C)C(=O)N(Cc2c(F)cccc2Cl)c2cc(C(=O)NCc3nc4ccccc4o3)ccc21 [Example 30, N-(benzo[d]oxazol-2-ylmethyl)-1-(2-chloro-6-fluorobenzyl)-3,3-dimethyl-2-oxoindoline-6-carboxamide]",1 to 10 µM,1 to 10 µM,1 to 10 µM,> 10 µM,1 to 10 µM,–,–
"CC1(C)C(=O)N(Cc2cc(F)cc(F)c2)c2cc(C(=O)NCc3cc4ccccc4o3)ccc21 [Example 23, N-(benzofuran-2-ylmethyl)-1-(3,5-difluorobenzyl)-3,3-dimethyl-2-oxoindoline-6-carboxamide]",≤ 1 µM,1 to 10 µM,1 to 10 µM,> 10 µM,1 to 10 µM,–,–
"Cc1ccc(CNC(=O)c2ccc3c(c2)N(Cc2cc(F)cc(F)c2)C(=O)C3(C)C)o1 [Example 16, 1-(3,5-difluorobenzyl)-3,3-dimethyl-N-((5-methylfuran-2-yl)methyl)-2-oxoindoline-6-carboxamide]",1 to 10 µM,1 to 10 µM,1 to 10 µM,> 10 µM,> 10 µM,–,–
"CC1(C)C(=O)N(Cc2cccc(C(N)=O)c2)c2cc(C(=O)NCc3c(F)cc(F)cc3F)ccc21 [Example 37, 1-(3-carbamoylbenzyl)-3,3-dimethyl-2-oxo-N-(2,4,6-trifluorobenzyl)indoline-6-carboxamide]",1 to 10 µM,1 to 10 µM,> 10 µM,> 10 µM,> 10 µM,–,–
"Cc1cccc(CNC(=O)c2ccc3c(c2)N(Cc2c(F)cccc2Cl)C(=O)C3(C)C)c1 [Example 8, 1-(2-chloro-6-fluorobenzyl)-3,3-dimethyl-N-(3-methylbenzyl)-2-oxoindoline-6-carboxamide]",≤ 1 µM,1 to 10 µM,1 to 10 µM,> 10 µM,1 to 10 µM,–,–

# Other lines, results leading:
EC50 [1],EC50 [2],EC50 [3],"EC50 ([4]; Homo sapiens, THP1-Dual, 20 h)","EC50 ([5]; Homo sapiens, THP1-Dual, 20 h)",EC50 [5],EC50 [4],Compound
≤ 1 µM,≤ 1 µM,≤ 1 µM,1 to 10 µM,1 to 10 µM,–,–,"CCn1nc(C)cc1CN1C(=O)C(C)(C)c2ccc(C(=O)NCc3cc4cc(F)ccc4o3)cc21 [Example 116, 1-((1-ethyl-3-methyl-1H-pyrazol-5-yl)methyl)-N-((5-fluorobenzofuran-2-yl)methyl)-3,3-dimethyl-2-oxoindoline-6-carboxamide]"
≤ 1 µM,≤ 1 µM,≤ 1 µM,1 to 10 µM,1 to 10 µM,–,–,"Cc1cccc(CN2C(=O)C(C)(C)c3ccc(C(=O)NCc4c(F)cc(F)cc4F)cc32)c1F [Example 73, 1-(2-fluoro-3-methylbenzyl)-3,3-dimethyl-2-oxo-N-(2,4,6-trifluorobenzyl)indoline-6-carboxamide]"
1 to 10 µM,1 to 10 µM,1 to 10 µM,> 10 µM,> 10 µM,–,–,"CC1(C)C(=O)N(Cc2coc3ccccc23)c2cc(C(=O)NCc3c(F)cc(F)cc3F)ccc21 [Example 100, 1-(benzofuran-3-ylmethyl)-3,3-dimethyl-2-oxo-N-(2,4,6-trifluorobenzyl)indoline-6-carboxamide]"
≤ 1 µM,≤ 1 µM,1 to 10 µM,> 10 µM,–,> 10 µM,–,"CC1(C#N)C(=O)N(Cc2c(F)cccc2Cl)c2cc(C(=O)NCc3c(F)cc(F)cc3F)ccc21 (centres unmarked) [Example 164, 1-(2-chloro-6-fluorobenzyl)-3-cyano-3-methyl-2-oxo-N-(2,4,6-trifluorobenzyl)indoline-6-carboxamide]"
1 to 10 µM,1 to 10 µM,1 to 10 µM,> 10 µM,> 10 µM,–,–,"Cc1ccc(CNC(=O)c2ccc3c(c2)N(Cc2cccc(F)c2F)C(=O)C3(C)C)o1 [Example 61, 1-(2,3-difluorobenzyl)-3,3-dimethyl-N-((5-methylfuran-2-yl)methyl)-2-oxoindoline-6-carboxamide]"
≤ 1 µM,≤ 1 µM,≤ 1 µM,1 to 10 µM,1 to 10 µM,–,–,"Cc1nn(C)c(CN2C(=O)C(C)(C)c3ccc(C(=O)NCc4cc5ccccc5o4)cc32)c1Br [Example 112, N-(benzofuran-2-ylmethyl)-1-((4-bromo-1,3-dimethyl-1H-pyrazol-5-yl)methyl)-3,3-dimethyl-2-oxoindoline-6-carboxamide]"
1 to 10 µM,1 to 10 µM,1 to 10 µM,> 10 µM,> 10 µM,–,–,"CC1(C#N)C(=O)N(Cc2cc(F)cc(F)c2)c2cc(C(=O)NCc3cc4ccccc4o3)ccc21 (centres unmarked) [Example 92, N-(benzofuran-2-ylmethyl)-3-cyano-1-(3,5-difluorobenzyl)-3-methyl-2-oxoindoline-6-carboxamide]"
≤ 1 µM,> 10 µM,> 10 µM,–,–,> 10 µM,> 10 µM,"CC1(Cl)C(=O)N(Cc2cc(F)cc(F)c2)c2cc(C(=O)NCc3c(F)cc(F)cc3F)ccc21 (centres unmarked) [Example 147, 3-chloro-1-(3,5-difluorobenzyl)-3-methyl-2-oxo-N-(2,4,6-trifluorobenzyl)indoline-6-carboxamide]"
1 to 10 µM,1 to 10 µM,1 to 10 µM,> 10 µM,> 10 µM,–,–,"COc1cccc(CN2C(=O)C(C)(C)c3ccc(C(=O)NCc4c(F)cc(F)cc4F)cc32)c1F [Example 104, 1-(2-fluoro-3-methoxybenzyl)-3,3-dimethyl-2-oxo-N-(2,4,6-trifluorobenzyl)indoline-6-carboxamide]"
